Measurements published in ChEMBL document CHEMBL3124786, “The discovery of reverse tricyclic pyridone JAK2 inhibitors. Part 2: lead optimization” (Bioorg Med Chem Lett, 2014).

Experiments:
[1] = Plasma clearance in rat; format: ADME, organism-based
[2] = target: T1, Tyrosine-protein kinase JAK2 (Homo sapiens, UniProt O60674); assay: Inhibition of recombinant Jak2 (unknown origin) using biotinylated synthetic peptide substrate by homogeneous time resolved fluorescence assay
[3] = target: T1, Tyrosine-protein kinase JAK2; assay: Inhibition of Jak2 (unknown origin) assessed as inhibition of STAT5 phosphorylation by cell-based assay
[4] = test system: Mus musculus; assay: Inhibition of Jak2 (unknown origin) in po dosed […] mouse assessed as inhibition of STAT5 phosphorylation measured after 1 to 8 hrs of dosing by PK/PD assay; format: functional, organism-based
[5] = species: Rattus norvegicus; assay: Unbound clearance in rat; format: ADME, organism-based; conditions: in vivo
[6] = Plasma protein binding in rat; format: ADME, cell-free; conditions: read-out: PPB (converted)
[7] = Half life in rat; format: ADME, organism-based; conditions: in vivo
[8] = Volume of distribution in rat; format: ADME, organism-based; conditions: in vivo
[9] = Mus musculus, C56bl/6, read-out: IC50

T1 sequence (O60674 whole entry): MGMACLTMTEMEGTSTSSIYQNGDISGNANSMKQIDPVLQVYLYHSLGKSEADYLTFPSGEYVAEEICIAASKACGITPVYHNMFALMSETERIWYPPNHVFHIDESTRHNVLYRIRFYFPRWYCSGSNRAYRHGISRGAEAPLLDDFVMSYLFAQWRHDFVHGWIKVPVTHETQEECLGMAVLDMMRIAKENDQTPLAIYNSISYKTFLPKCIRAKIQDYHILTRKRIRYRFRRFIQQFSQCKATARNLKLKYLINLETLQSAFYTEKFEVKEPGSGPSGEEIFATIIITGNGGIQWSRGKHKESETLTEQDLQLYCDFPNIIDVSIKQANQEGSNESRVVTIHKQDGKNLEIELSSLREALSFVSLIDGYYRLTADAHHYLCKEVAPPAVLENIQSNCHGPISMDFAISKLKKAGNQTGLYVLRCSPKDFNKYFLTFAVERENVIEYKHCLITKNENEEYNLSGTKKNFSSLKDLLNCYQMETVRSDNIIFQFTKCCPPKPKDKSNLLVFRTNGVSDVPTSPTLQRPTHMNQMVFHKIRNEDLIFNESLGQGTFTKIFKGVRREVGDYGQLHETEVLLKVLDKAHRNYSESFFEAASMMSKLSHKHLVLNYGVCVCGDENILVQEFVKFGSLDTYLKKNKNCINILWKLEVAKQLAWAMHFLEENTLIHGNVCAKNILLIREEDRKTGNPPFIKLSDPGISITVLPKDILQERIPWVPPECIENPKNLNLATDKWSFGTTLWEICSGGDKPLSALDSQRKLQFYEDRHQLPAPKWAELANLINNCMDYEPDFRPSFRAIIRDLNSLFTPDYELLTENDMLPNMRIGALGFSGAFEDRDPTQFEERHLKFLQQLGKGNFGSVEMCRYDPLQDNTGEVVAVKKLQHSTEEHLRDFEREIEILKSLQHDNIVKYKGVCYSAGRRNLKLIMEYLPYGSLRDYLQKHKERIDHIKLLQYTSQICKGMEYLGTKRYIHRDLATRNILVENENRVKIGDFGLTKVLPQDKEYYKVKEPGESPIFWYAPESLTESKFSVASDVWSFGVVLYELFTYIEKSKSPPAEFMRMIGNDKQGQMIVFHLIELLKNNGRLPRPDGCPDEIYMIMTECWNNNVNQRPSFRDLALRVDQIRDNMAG

Row | SMILES | clearance [1] | IC50 [2] | IC50 [3] | IC50 [4, 9] | CL [5] | fraction unbound [6] | IC50 [4] | half-life [7] | Vd [8]
1 | O=c1[nH]ccc2c(NC3CC3)nc3ccc(F)cc3c12 |  | 200 nM |  |  |  |  |  |  | 
2 | O=c1[nH]ccc2nc(NC3CC3)c3ccc(F)cc3c12 |  | 100 nM |  |  |  |  |  |  | 
3 | O=c1[nH]ccc2c(Nc3c(Cl)cc(F)cc3Cl)nc3ccncc3c12 |  | 0.8 nM | 14 nM |  |  |  |  |  | 
4 | O=c1[nH]ccc2c(Nc3c(Cl)cncc3Cl)nc3ccncc3c12 |  | 2 nM | 24 nM |  |  |  |  |  | 
5 | O=c1[nH]ccc2c(Nc3c(Cl)cc(OC(F)(F)F)cc3Cl)nc3ccncc3c12 |  | 3 nM | 140 nM |  |  |  |  |  | 
6 | O=c1[nH]ccc2c(Nc3c(F)cccc3C(F)(F)F)nc3ccncc3c12 |  | 9 nM | 90 nM |  |  |  |  |  | 
7 | CC(O)c1cc(Cl)c(Nc2nc3ccncc3c3c(=O)[nH]ccc23)c(Cl)c1 (stereo not drawn) | 54 mL/min/kg | 0.6 nM | 12 nM | 400 nM | 1125 mL/min/kg | 0.048 |  |  | 
8 | O=c1[nH]ccc2c(Nc3c(Cl)cc(C(O)C(F)F)cc3Cl)nc3ccncc3c12 (stereo not drawn) | 16 mL/min/kg | 0.2 nM | 26 nM | 1300 nM | 571 mL/min/kg | 0.028 |  |  | 
9 | NS(=O)(=O)c1cc(Cl)c(Nc2nc3ccncc3c3c(=O)[nH]ccc23)c(Cl)c1 | 50 mL/min/kg | 0.15 nM | 113 nM |  |  |  | Not Active |  | 

Now from value to compound:

Row | clearance [1] | IC50 [2] | IC50 [3] | IC50 [4, 9] | CL [5] | fraction unbound [6] | IC50 [4] | half-life [7] | Vd [8] | SMILES
10 | 68 mL/min/kg |  |  |  |  |  |  |  |  | CC(C)[C@@H](Nc1nc2cc[nH]c(=O)c2c2cnccc12)C(F)(F)F
11 |  | 7 nM | 90 nM |  |  |  |  |  |  | O=c1[nH]ccc2c(Nc3c(F)cc(F)cc3F)nc3ccncc3c12
12 |  | 1 nM | 49 nM |  |  |  |  |  |  | O=c1[nH]ccc2c(Nc3c(Cl)cc(C(F)(F)F)cc3Cl)nc3ccncc3c12
13 | 29 mL/min/kg | 0.5 nM | 18 nM | 1200 nM | 1115 mL/min/kg | 0.026 |  |  |  | CC(C)(O)c1cc(Cl)c(Nc2nc3ccncc3c3c(=O)[nH]ccc23)c(Cl)c1
14 | 10 mL/min/kg | 1 nM | 37 nM |  | 10000 mL/min/kg | 0.001 | Not Active |  |  | O=c1[nH]ccc2c(Nc3c(Cl)cc(-c4ccn[nH]4)cc3Cl)nc3ccncc3c12
15 |  | 10 nM | 170 nM |  |  |  |  |  |  | CC(C)[C@H](Nc1nc2ccncc2c2c(=O)[nH]ccc12)C(F)(F)F
16 | 41 mL/min/kg | 0.9 nM | 15 nM | 2300 nM | 875 mL/min/kg | 0.048 |  | 48 min | 2.6 L/kg | O=c1[nH]ccc2c(Nc3c(F)cc(F)cc3Cl)nc3ccncc3c12
